Results: ChEMBL document CHEMBL3879915, “Methods of inhibiting PRMT5” (2014)

Columns and labels:
[1] = Antiproliferative activity against human Z138 cells assessed as inhibition of cell viability after 5 days by Cell-Titer Glo assay; assay type: functional, cell-based; settings: Z-138, 120 h
PRMT5/MEP50 complex = PRMT5/MEP50 complex (Homo sapiens, UniProt O14744); experiment: Inhibition of recombinant human fetal brain FLAG-tagged PRMT5/full length human testis 6His-tagged MEP50 expressed in baculovirus infected insect Sf9 cells using human histone H4 (1 to 15 residues) as substrate preincubated for 30 mins followed by [3H]-SAM addition
Chain of PRMT5/MEP50 complex (O14744 whole entry, the tested form may be a part): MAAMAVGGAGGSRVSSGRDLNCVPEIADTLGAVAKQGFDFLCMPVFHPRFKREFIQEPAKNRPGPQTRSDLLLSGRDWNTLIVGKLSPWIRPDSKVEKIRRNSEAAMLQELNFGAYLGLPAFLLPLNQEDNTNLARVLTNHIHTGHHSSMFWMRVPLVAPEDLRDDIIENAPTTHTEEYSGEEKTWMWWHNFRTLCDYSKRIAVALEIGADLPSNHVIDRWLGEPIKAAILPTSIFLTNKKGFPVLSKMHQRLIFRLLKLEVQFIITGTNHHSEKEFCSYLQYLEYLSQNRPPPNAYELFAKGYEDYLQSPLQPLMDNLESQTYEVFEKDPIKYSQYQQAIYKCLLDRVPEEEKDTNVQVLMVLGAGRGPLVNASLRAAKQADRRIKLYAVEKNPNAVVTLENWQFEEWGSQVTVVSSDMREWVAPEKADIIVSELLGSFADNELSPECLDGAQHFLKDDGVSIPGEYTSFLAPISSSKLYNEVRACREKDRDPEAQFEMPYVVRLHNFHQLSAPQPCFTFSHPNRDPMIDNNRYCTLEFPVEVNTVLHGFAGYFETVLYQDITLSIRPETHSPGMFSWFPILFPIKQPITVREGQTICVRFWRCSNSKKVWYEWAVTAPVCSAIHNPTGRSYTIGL
Chain of PRMT5/MEP50 complex (Q9BQA1 whole entry, further chain, the tested form may be a part): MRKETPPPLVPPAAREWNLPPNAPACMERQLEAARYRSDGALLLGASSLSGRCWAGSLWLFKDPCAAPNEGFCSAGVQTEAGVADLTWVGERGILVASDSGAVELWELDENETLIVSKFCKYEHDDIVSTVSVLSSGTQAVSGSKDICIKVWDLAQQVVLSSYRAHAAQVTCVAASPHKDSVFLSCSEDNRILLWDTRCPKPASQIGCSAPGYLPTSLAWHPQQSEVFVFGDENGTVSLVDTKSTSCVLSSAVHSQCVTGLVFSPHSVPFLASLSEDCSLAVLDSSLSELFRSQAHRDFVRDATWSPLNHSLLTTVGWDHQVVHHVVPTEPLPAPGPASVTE

[2] = molecular target: Protein arginine N-methyltransferase 5 (Homo sapiens, UniProt O14744); experiment: Inhibition of PRMT5 in human Z138 cells assessed as decrease in di-methyl arginine levels after 96 hrs by Western blot method; assay type: cell-based
Chain of Protein arginine N-methyltransferase 5 (O14744 whole entry): as the sequence (O14744 whole entry, the tested form may be a part) above

Compound | EC50 [1] | IC50 (PRMT5/MEP50 complex) | EC50 [2]
CN1CCN(Cc2cccc(C(=O)NCC(O)CN3CCc4ccccc4C3)c2)CC1 (configuration not stated) | 1 to 10 µM | < 0.1 µM | 0.101 to 1 µM
O=C(NCC(O)CN1CCc2ccccc2C1)c1cccc(C2CCNC2)c1 (configuration not stated) | > 20 µM | < 0.1 µM | 0.101 to 1 µM
OC(COc1cccc(-c2cc(C(F)(F)F)ccc2Cl)c1)CN1CCc2ccccc2C1 (configuration not stated) | 10 to 40 µM | 0.101 to 1 µM | 1 to 10 µM
O=C1CN(c2cccc3cccnc23)CCN1CC(O)CN1CCc2ccccc2C1 (configuration not stated) | 1 to 10 µM | < 0.1 µM | 0.101 to 1 µM
O=C1COc2ccccc2N1CC(O)CN1CCc2ccccc2C1 (configuration not stated) | > 20 µM | 0.101 to 1 µM | 0.101 to 1 µM
CS(=O)(=O)Nc1ccc(C(=O)NCC(O)CN2CCc3ccccc3C2)cc1 (configuration not stated) | 10 to 50 µM | 0.101 to 1 µM | 0.101 to 1 µM
Cn1cnc2cc(-c3cccc(OCC(O)CN4CCc5ccccc5C4)c3)ccc21 (configuration not stated) | 10 to 40 µM | 0.101 to 1 µM | 0.101 to 1 µM
CNCCOc1cccc(C(=O)NCC(O)CN2CCc3ccccc3C2)c1 (configuration not stated) | > 20 µM | 0.101 to 1 µM | 1 to 10 µM
OC(COc1cccc(-c2ccccc2Cl)c1)CN1CCc2ccccc2C1 (configuration not stated) | 10 to 40 µM | 0.101 to 1 µM | 1 to 10 µM
O=C1CN(c2ccccc2Cl)CCN1CC(O)CN1CCc2ccccc2C1 (configuration not stated) | 10 to 50 µM | 0.101 to 1 µM | 0.101 to 1 µM
O=C1CN(c2cncc(N3CCOCC3)c2)CCN1CC(O)CN1CCc2ccccc2C1 (configuration not stated) | 1 to 10 µM | < 0.1 µM | 0.101 to 1 µM
CC1c2ccccc2CCN1CC(O)COc1cccc(-c2ccc3ncn(C)c3c2)c1 (configuration not stated) | 1 to 10 µM | 0.101 to 1 µM | > 20 µM
CC(C)n1cnc2ccc(-c3cccc(OCC(O)CN4CCc5ccccc5C4)c3)cc21 (configuration not stated) | 10 to 40 µM | 0.101 to 1 µM | 0.101 to 1 µM
CN(C)c1ccccc1N1CCN(C[C@H](O)CN2CCc3ccccc3C2)C(=O)C1 | 10 to 50 µM | 0.101 to 1 µM | 0.101 to 1 µM
OC(COc1cccc(-c2cnc3ccccc3c2)c1)CN1CCc2ccccc2C1 (configuration not stated) | 10 to 40 µM | 0.101 to 1 µM | 1 to 10 µM
O=C1Cc2ccccc2N1CC(O)CN1CCc2ccccc2C1 (configuration not stated) | > 20 µM | 0.101 to 1 µM | 0.101 to 1 µM
COc1ccc(-c2cccc(OCC(O)CN3CCc4ccccc4C3)c2)c(Cl)c1 (configuration not stated) | 10 to 40 µM | 0.101 to 1 µM | 1 to 10 µM
OC(COc1cccc(-c2cccc3c2oc2ccccc23)c1)CN1CCc2ccccc2C1 (configuration not stated) | 10 to 40 µM | 0.101 to 1 µM | 1 to 10 µM
OC(COc1ccc(C2CCCNC2)cc1)CN1CCc2ccccc2C1 (configuration not stated) | 1 to 10 µM | < 0.1 µM | 0.101 to 1 µM
Cc1ccc(N2CCN(CC(O)CN3CCc4ccccc4C3)C(=O)C2)cc1 (configuration not stated) | > 20 µM | 0.101 to 1 µM | 0.101 to 1 µM
OC(COc1cccc(-c2ccc3nn[nH]c3c2)c1)CN1CCc2ccccc2C1 (configuration not stated) | 1 to 10 µM | 0.101 to 1 µM | 1 to 10 µM
CC(=O)c1cccc(-c2cccc(OCC(O)CN3CCc4ccccc4C3)c2)c1 (configuration not stated) | 10 to 40 µM | 0.101 to 1 µM | 1 to 10 µM
CN1CCN(c2cccc(C(=O)NCC(O)CN3CCc4ccccc4C3)c2)CC1 (configuration not stated) | 10 to 50 µM | < 0.1 µM | 0.101 to 1 µM
CS(=O)(=O)c1ccc(-c2cccc(OCC(O)CN3CCc4ccccc4C3)c2)cc1 (configuration not stated) | 10 to 40 µM | 0.101 to 1 µM | 1 to 10 µM
OC(CNc1cccc(CNC2CCCC2)c1)CN1CCc2ccccc2C1 (configuration not stated) | > 20 µM | 0.101 to 1 µM | 1 to 10 µM
O=C1CN(c2cccc(F)c2)CCN1CC(O)CN1CCc2ccccc2C1 (configuration not stated) | > 20 µM | < 0.1 µM | 0.101 to 1 µM
CC(Oc1cccc(CNC2CCCC2)c1)C(O)CN1CCc2ccccc2C1 (configuration not stated) | 1 to 10 µM | 0.101 to 1 µM | 0.101 to 1 µM

Compound | EC50 [1] | IC50 (PRMT5/MEP50 complex) | EC50 [2]
CN1CCC(c2cccc(C(=O)NCC(O)CN3CCc4ccccc4C3)c2)C1 (configuration not stated) | 10 to 50 µM | < 0.1 µM | 0.101 to 1 µM
COC(COc1cccc(CNC2CCCC2)c1)CN1CCc2ccccc2C1 (configuration not stated) | > 40 µM | 1 to 10 µM | > 20 µM
COc1ccc(Cn2cnc3ccc(-c4cccc(OCC(O)CN5CCc6ccccc6C5)c4)cc32)cc1 (configuration not stated) | 10 to 40 µM | 0.101 to 1 µM | 1 to 10 µM
OC(COc1cccc(-c2ccc3nc[nH]c3c2)c1)CN1CCc2ccccc2C1 (configuration not stated) | 10 to 40 µM | 0.101 to 1 µM | 1 to 10 µM
NS(=O)(=O)c1cccc(C(=O)NCC(O)CN2CCc3ccccc3C2)c1 (configuration not stated) | > 20 µM | 0.101 to 1 µM | 0.101 to 1 µM
CCN(c1cccc(C(=O)NCC(O)CN2CCc3ccccc3C2)c1C)C1CCOCC1 (configuration not stated) | 1 to 10 µM | < 0.1 µM | < 0.1 µM
Cc1c(NC2CCOCC2)cccc1C(=O)NCC(O)CN1CCc2ccccc2C1 (configuration not stated) | 1 to 10 µM | < 0.1 µM | < 0.1 µM
O=C1CN(c2ccc(Cl)cc2)CCN1CC(O)CN1CCc2ccccc2C1 (configuration not stated) | 10 to 50 µM | < 0.1 µM | 0.101 to 1 µM
COc1ccc(-c2cccc(OCC(O)CN3CCc4ccccc4C3)c2)cc1 (configuration not stated) | 10 to 40 µM | 0.101 to 1 µM | 1 to 10 µM
OC(COc1cccc(-c2ccc3c(c2)OCCO3)c1)CN1CCc2ccccc2C1 (configuration not stated) | 10 to 40 µM | 0.101 to 1 µM | 1 to 10 µM
OC(COc1cccc(-c2ccc3cn[nH]c3c2)c1)CN1CCc2ccccc2C1 (configuration not stated) | 10 to 40 µM | 0.101 to 1 µM | 1 to 10 µM
COc1ccc(-c2cccc(OCC(O)CN3CCc4ccccc4C3)c2)c(C)c1 (configuration not stated) | 10 to 40 µM | 0.101 to 1 µM | 1 to 10 µM
COc1cccc(-c2cccc(OCC(O)CN3CCc4ccccc4C3)c2)c1 (configuration not stated) | 10 to 40 µM | 0.101 to 1 µM | 1 to 10 µM
OC(COc1cccc(-c2ccc3c(c2)OCO3)c1)CN1CCc2ccccc2C1 (configuration not stated) | 10 to 40 µM | 0.101 to 1 µM | 10 to 40 µM
OCc1cccc(-c2cccc(OCC(O)CN3CCc4ccccc4C3)c2)c1 (configuration not stated) | 10 to 40 µM | 0.101 to 1 µM | 1 to 10 µM
OC(COc1cccc(-c2ccccc2)c1)CN1CCc2ccccc2C1 (configuration not stated) | > 20 µM | 0.101 to 1 µM | 1 to 10 µM
CN(CC(O)CN1CCc2ccccc2C1)c1cccc(CNC2CCCC2)c1 (configuration not stated) | 10 to 40 µM | 0.101 to 1 µM | 0.101 to 1 µM
CN1CCCC1c1cccc(C(=O)NCC(O)CN2CCc3ccccc3C2)c1 (configuration not stated) | 10 to 50 µM | < 0.1 µM | 0.101 to 1 µM
OC(COc1cccc(-c2cccc3cccnc23)c1)CN1CCc2ccccc2C1 (configuration not stated) | 10 to 40 µM | < 0.1 µM | 0.101 to 1 µM
Cn1cnc2ccc(-c3cccc(OCC(O)CN4CCc5ccccc5C4)c3)cc21 (configuration not stated) | 1 to 20 µM | < 0.1 µM | 0.101 to 10 µM
O=C(NCC(O)CN1CCc2ccccc2C1)c1cccc(N2CCNCC2)c1 (configuration not stated) | 10 to 50 µM | < 0.1 µM | 0.101 to 1 µM
O=c1cc(Nc2ccccc2)ccn1C[C@@H](O)CN1CCc2ccccc2C1 | > 20 µM | 0.101 to 1 µM | 0.101 to 1 µM
O=C1CN(c2cccc(N3CCOCC3)c2)CCN1CC(O)CN1CCc2ccccc2C1 (configuration not stated) | 1 to 10 µM | < 0.1 µM | < 0.1 µM
O=C(NC[C@@H](O)CN1CCc2ccccc2C1)c1cccc(NC2CCOCC2)c1 | 1 to 10 µM | 0.101 to 1 µM | 0.101 to 1 µM
O=C(NCC(O)CN1CCc2ccccc2C1)c1cccc(C2CCCN2)c1 (configuration not stated) | > 20 µM | 0.101 to 1 µM | 1 to 10 µM
OC(COc1cccc(-c2cccc(F)c2F)c1)CN1CCc2ccccc2C1 (configuration not stated) | 10 to 40 µM | 0.101 to 1 µM | 10 to 40 µM
O=C(c1ccc(Cn2nccc2-c2ccc(OCC(O)CN3CCc4ccccc4C3)cc2)cc1)N1CCCC1 (configuration not stated) | 10 to 40 µM | 0.101 to 1 µM | 1 to 10 µM
